In paper PMC7352759, “S(+)-(2E)-N-(2-Hydroxypropyl)-3-Phenylprop-2-Enamide (KM-568): A Novel Cinnamamide Derivative with Anticonvulsant Activity in Animal Models of Seizures and Epilepsy” (International Journal of Molecular Sciences, 2020):
Like-named read-outs stand apart in the source and are kept apart here.

What was measured:
[1] = Neurotoxicity (TOX), rotarod test, mice; format: in vivo; conditions: mouse, in vivo, rotarod, 0.25 h, 95% confidence interval in parentheses
Experimental: (§1) In mice, the neurological deficit was measured by the rotarod test in which a 1 inch diameter knurled plastic rod rotating at 6 rpm was used. Tests were performed at 0.25 h or 0.5 h of intraperitoneal or oral administration of the certain dose of the compounds KM-568. Each mouse was placed on the rod. If the animal was not able to remain on the rod for at least 1 min in each of three trials, the neurotoxicity was scored. In rats, the neurological deficit was measured in behavioral tests and scored when ataxia and loss of placing response and muscle tone were observed. Tests in rats were performed after 0.5 h of intraperitoneal administration or 1.0 h of oral administration of the certain dose of compound KM-568. TD50s were calculated by probit analysis.

mice [2] = assay: Neurotoxicity (TOX), rotarod test, mice; format: in vivo
Experimental: as §1

mice [3] = assay: 6-Hz psychomotor seizure model (32 mA, 44 mA); format: in vivo; conditions: for ED50: Mus musculus, ip, 95% confidence interval in parentheses; for 6-Hz (32 mA) Results (protected/tested animals) / 6-Hz (44 mA) Results (protected/tested animals): i.p.
Experimental: The test was performed after 0.25 h (for 32 mA current) or 0.5 h (for 44 mA current) of i.p. administration of compound KM-568. The groups of 8 animals were challenged for a single dose of the tested compounds. In addition, 0.2 ms pulses of electric current at 6 Hz and 32 mA or 44 mA were delivered for 3 sec via corneal electrodes. The mouse was released into an observation cage immediately after stimulation. The electric stimulation in a 6-Hz test causes a minimal clonic phase followed by stereotyped, automatic behaviors. The seizure activity can be described as stun, forelimb clonus, twitching of the vibrissae, and Straub tail. The protection was scored if the mouse resumed its normal activity within 10 sec from the stimulation.

H9c2 cells = assay: MTT cytotoxicity assay, H9c2; format: cell-based, rat
Experimental: (§2) Human liver cancer HepG2 cell line (ATCC HB8065) and rat cardiomyoblast cell line H9c2 (ATCC-CRL1446) were purchased in ATCC (American Type Culture Collection, Manassas, VA, USA). The cells were cultured in standard conditions (37 °C, 5% CO2) in EMEM medium (ATCC, Manassas, VA, USA), supplemented with 10% FBS (Gibco, Waltham, MA, USA) and antibiotics (1% streptomycin/penicillin mixture, Sigma–Aldrich, Darmstadt, Germany) or DMEM high glucose (ATCC, Manassas, VA, USA) supplemented with 10% FBS (Gibco, Waltham, MA, USA) and antibiotics (1% streptomycin/penicillin mixture, Sigma–Aldrich, Darmstadt, Germany), respectively.
(§3) The MTT colorimetric assay was used to determine the cytotoxic effects of the KM-568 and DOX (Sigma–Aldrich, Darmstadt, Germany). Cells were seeded at a density of 1 × 10^4 in 96-well plates. Following overnight culture, the cells were then treated with KM-568 and DOX in concentration range 0.1–200 µM (hepatocytotoxicity) or 0.1–100 µM (cardiocytotoxicity). Following cell exposure to each drug for 24 h in 96 well plates, 10 µL MTT reagent (Sigma–Aldrich, Darmstadt, Germany) was added to each well; after 4 h of incubation (37 °C, 5% CO2), the medium was aspirated and formazan produced in cells appeared as dark crystals in the bottom of the wells. […] Then, absorbance was measured at 570 nm on a multi-well plate reader (Spectra Max iD3, Molecular Devices, San Jose, CA, USA). […]

[4] = Ames microplate format (MPF) assay, TA100; conditions: Salmonella typhimurium
Source text: The Ames microplate format (MPF) mutagenicity assay (Xenometrix, Allschwil, Switzerland) was used to test KM-568 mutagenicity. Growth, exposure, and indicator media, positive control chemicals, and four Salmonella typhimurium strains TA98, TA100, TA1535 and TA1537 were included in the kit. TA100 and TA1535 strains detect base substitution mutations, whereas TA98 and TA1537 indicate frameshift mutations. The strains of bacteria included in a kit are in compliance with the Organization for Economic Cooperation and Development (OECD) 471 Guideline for Testing of Chemicals.
The assay is a liquid microplate modification of the traditional Salmonella test. During the procedure, bacteria are exposed to different concentrations of a test compound for 90 min in a medium containing sufficient histidine to support cell divisions. Then, the cultures are diluted in a pH indicator medium lacking histidine and aliquoted into 48 wells of a 384-well plate. Within 2 days, bacteria that have undergone reversion to amino acid prototrophy will form colonies. Products of bacteria metabolism reduce pH of the medium, changing the color of wells from purple to yellow.
The test procedure provided by Xenometrix and described in detail elsewhere was followed. Bacterial strains were grown overnight (14–16 h) in exposure medium in a shaker incubator and then exposed to KM-568 in 24-well plates for 90 min at 37 °C with agitation. Final KM-568 concentrations in the assay were 0.1, 0.2, and 0.5 mM. After preincubation, the cultures were diluted in the indicator medium and the contents of each 24-well culture were transferred to 48 wells on a 384-well plate and incubated further for 48 h at 37 °C without agitation. After the exposure, the number of wells containing bacteria was scored for yellow wells. […]
The fold increase of revertants relative to the solvent control was determined by dividing the mean number of positive wells at each dose by the solvent control at baseline. The solvent control at baseline was calculated as the mean number of positive wells in the solvent control plus one standard deviation (SD). […]

HepG2 cells = assay: MTT cytotoxicity assay, HepG2; format: cell-based, human
Experimental: as §2, §3

For `C[C@H](O)CNC(=O)/C=C/c1ccccc1` [KM-568, S(+)-(2E)-N-(2-hydroxypropyl)-3-phenylprop-2-enamide], the TD50 at 0.25 h ([1]; ip) was 148 mg/kg, the TD50 at 0.25 h ([1]; po) was 344 mg/kg and the “TOX Results (animals displaying neurotoxicity/animals used)” value (mice [2]; i.p., 100 mg/kg, 0.25 h) was 0/8. The “TOX Results (animals displaying neurotoxicity/animals used)” value (mice [2]; i.p., 125 mg/kg, 0.25 h) was 0/8, the “TOX Results (animals displaying neurotoxicity/animals used)” value (mice [2]; i.p., 138 mg/kg, 0.25 h) was 2/8 and the “TOX Results (animals displaying neurotoxicity/animals used)” value (mice [2]; i.p., 150 mg/kg, 0.25 h) was 5/8. The “TOX Results (animals displaying neurotoxicity/animals used)” value (mice [2]; i.p., 170 mg/kg, 0.25 h) was 7/8, the “TOX Results (animals displaying neurotoxicity/animals used)” value (mice [2]; i.p., 200 mg/kg, 0.25 h) was 8/8 and the “TOX Results (animals displaying neurotoxicity/animals used)” value (mice [2]; p.o., 200 mg/kg) was 0/8. For the same molecule, the “TOX Results (animals displaying neurotoxicity/animals used)” value (mice [2]; p.o., 300 mg/kg) was 3/8, the “TOX Results (animals displaying neurotoxicity/animals used)” value (mice [2]; p.o., 350 mg/kg) was 5/8 and the “TOX Results (animals displaying neurotoxicity/animals used)” value (mice [2]; p.o., 400 mg/kg) was 5/8. For the same molecule, the “TOX Results (animals displaying neurotoxicity/animals used)” value (mice [2]; p.o., 500 mg/kg) was 7/8, the ED50 (mice [3]; 32 mA, 0.25 h, read-out: 6-Hz (32 mA) ED50) was 71.5 mg/kg and the ED50 (mice [3]; 44 mA, 0.5 h, read-out: 6-Hz (44 mA) ED50) was 114 mg/kg. For the same molecule, the “6-Hz (32 mA) Results (protected/tested animals)” value (mice [3]; 50 mg/kg, 0.25 h) was 1/8, the “6-Hz (44 mA) Results (protected/tested animals)” value (mice [3]; 50 mg/kg, 0.5 h) was 0/8 and the “6-Hz (32 mA) Results (protected/tested animals)” value (mice [3]; 75 mg/kg, 0.25 h) was 3/8. The “6-Hz (32 mA) Results (protected/tested animals)” value (mice [3]; 87 mg/kg, 0.25 h) was 7/8, the “6-Hz (44 mA) Results (protected/tested animals)” value (mice [3]; 100 mg/kg, 0.5 h) was 3/8 and the “6-Hz (32 mA) Results (protected/tested animals)” value (mice [3]; 110 mg/kg, 0.25 h) was 8/8. The “6-Hz (44 mA) Results (protected/tested animals)” value (mice [3]; 150 mg/kg, 0.5 h) was 6/8, the “6-Hz (44 mA) Results (protected/tested animals)” value (mice [3]; 200 mg/kg, 0.5 h) was 8/8 and the “percent of living cells” value (H9c2 cells; H9c2, 24 h incubation with 100 µM) was roughly 100%. The “cytotoxic effect, MTT assay” value (H9c2 cells; H9c2, up to 100 µM, 24 h) was “no cytotoxic effect”, the fold induction at 90 min, 0.1 mM [4] was 0.8 and the fold induction at 90 min, 0.2 mM [4] was 0.7. The fold induction at 90 min, 0.5 mM [4] was 1, the “percent of living cells” value (HepG2 cells; HepG2, 24 h incubation with 100 µM) was roughly 100% and the “cytotoxic effect, MTT assay” value (HepG2 cells; HepG2, up to 100 µM, 24 h) was “no cytotoxic effect”.
